Measured values published in US20230285357A1, “COMPOSITIONS AND METHODS FOR […] CELLS” (The Regents of the University of California, priority 2020, published 2023).

What was measured:
[1] = tested on: promoter region of Smad1 gene; assay: ChIP assay of β-catenin DNA-binding and histone modification in promoter of Smad1 gene; type: cell-based, mouse
From the text: The expression of transcription factors that are known to be involved in bone formation or vascular development were screened. […] To determine if excess β-catenin affected SMAD1 expression, β-catenin in SB216763-treated osteoblasts was depleted by using siRNA. […] DNA-binding sites of β-catenin by locating the binding motifs in Smad1 gene was explored, and identified four individual sites located at −196 bp, −1454 bp, −2805 bp and −4729 bp upstream of exon1 of Smad1 gene (FIG. 3, Part D). […] Then, transcriptional status of Smad1 was determined by examining the histone modification, including trimethylated histone H3 lysine 4 (H3K4me3) associated with active transcription and H3K27me3 a closed chromatin mark.
βChIP assays were performed as previously described. Specific antibodies for β-catenin were used (R&D System, MAB2006), H3k4me3 (Abcam, ab8580) and H3k27me3 (Abcam, ab6002). The primers for the real-time PCR: 5′GAAAATAACACAGGCTTTG3′ (SEQ ID NO: 13) and 5′ GCTCCCCGAGCCTGGATT 3′ (SEQ ID NO: 14); 5′ GGACAGAGGCTCTCATTCC 3′ (SEQ ID NO: 15) and 5′[…]3′ (SEQ ID NO: 16) and 5′[…]3′ (SEQ ID NO: 17) 5′[…]3′ (SEQ ID NO: 18); 5′[…]3′ (SEQ ID NO: 19) and 5′[…]3′ (SEQ ID NO: 20).

[2] = tested on: SMAD1 or β-catenin DNA-binding; assay: ChIP-seq of SMAD1 and β-catenin DNA-binding in treated osteoblasts; type: cell-based, mouse
Protocol: A chromatin immunoprecipitation was performed with massively parallel DNA sequencing (ChIP-seq) to examine potential alterations of SMAD1 or β-catenin DNA-binding in SB216763-treated osteoblasts.
For ChIP-seq, specific antibodies were used to enrich the genomic DNA as described before. ChIP DNA were sequenced by the Pathology Research Services at UCLA. Reads from each sample were mapped to the mouse genome using Bowtie2. Homer tool was used to detect significant enrichment of peaks with 5% false discovery rate and >4-fold over input. Motif occurrences in peaks were identified by the Homer motif discovery function. Peak annotation was performed to associate peaks with nearby genes and calculate tag densities. GO analysis and pathway enrichment of the identified genes were also performed. Specific antibodies for SMAD1 (Cell Signaling Technology, 9743) and β-catenin (R&D System, MAB2006) were used. The data were deposited in Gene Expression Omnibus (GEO) database with access number (GSE147374).

GFP+CD31+ aortic cells = assay: Bone formation assay in vivo with GFP+CD31+ aortic cells of treated mice; design: species or system mouse
Protocol: Then, mice were treated with or without SB216763 for 2 weeks. […] Then, the alteration of GFP and CD31 double positive cells (GFP+CD31+) were characterized after SB216763 treatment. […] Same numbers of cells of each group were used to perform a transplantation experiment to examine the capacity of bone formation by using bone formation assay in vivo.

GSK3α and GSK3β = details: cited from earlier work
[3] = tested on: bone tissue of wild type mice; assay: Effect of long treatment on bone formation in wild type mice; type: in vivo, mouse; details: wild type mice at 8 weeks of age, 5 ug/g daily for 8 weeks
Protocol: To determine if long-treatment of SB216763 has any effects on bone formation, wild type mice were treated at 8 weeks of age with SB216763 (5 ug/g daily) for 8 weeks. After treatment, the bone tissue was examined by micro-CT imaging and immunostaining.
MicroCT imaging was performed at the Crump Imaging Center at UCLA. All the samples were scanned on a high-resolution, volumetric microCT scanner (CT125). The image data were acquired with the following parameters: 10 μm isotropic voxel resolution; 200 ms exposure time; 2,000 views and 5 frames per view. The microCT-generated DICOM files were used to analyze the samples and to create volume renderings of the regions of interest. The raw data files were viewed using the MicroView 3-D volume viewer and analysis tool (GE Healthcare) and AltaViewer™ Software. Additionally, images of the samples were generated using SCIRun (Scientific Computing and Imaging Institute).

[4] = tested on: vascular calcification in Mgp−/− mice; assay: Early vascular calcification in Mgp−/− mice; type: in vivo, mouse; details: Mgp−/− mice at 2 weeks of age, 5 ug/g daily for 2 weeks
Protocol: To examine whether SB216763 could be used for treatment of vascular calcification, the Mgp^−/− mouse was chosen, a well-known model of calcification. Mgp^−/− mice develop arterial calcification as early as postnatal day 14. At 4 weeks of age, the entire arterial vasculature is severely calcified. Two independent experiments were performed to test if SB216763 decreased calcification in Mgp^−/− mice. First, young Mgp^−/− mice at 2 weeks of age with SB216763 were treated (5 ug/g daily) for 2 weeks to determine if SB216763 prevented osteogenesis in the Mgp^−/− aortas (FIG. 5, Part A).
Mgp^+/− (B6.129S7-Mgptm1Kry/KbosJ), Col1α1^CreERT2 (B6.Cg-Tg(Col1α1-cre/ERT2)1Crm/J), GSK3β^flox/flox (B6.129(Cg)-Gsk3btm2Jrw/J) and Osx-Gfptg (B6.Cg-Tg(Sp7-tTA,tetO-EGFP/cre)1Amc/J) mice on C57BL/6J background were purchased from the Jackson Laboratory. Genotypes were confirmed by PCR, and experiments were performed with generation F4-F6. Littermates were used as wild type controls. All mice were fed a standard chow diet. The studies were reviewed and approved by the Institutional Review Board and conducted in accordance with the animal care guidelines set by the University of California, Los Angeles (UCLA). The investigation conformed to the National Research Council, Guide for the Care and Use of Laboratory Animals, Eighth Edition (Washington, D.C.: The National Academies Press, 2011).

β-catenin abundance around binding sites upstream of exon1 of Smad1 gene ([1]; treated osteoblasts vs non-treated controls): more abundance of β-catenin
hemorrhage in the bone tissue [3]: had not detected any hemorrhage
relative bone volumes and connectivity densities, micro-CT ([3]; treated vs non-treated): no differences
Structure (SMILES): Cn1cc(C2=C(c3ccc(Cl)cc3Cl)C(=O)NC2=O)c2ccccc21 [SB216763]
histone modification H3K4me3 and H3K27me3 around β-catenin binding sites in Smad1 promoter ([1]; treated osteoblasts): lower abundance of H3K4me3 with higher abundance H3K27me3
genes with decreased DNA-binding of SMAD1 in the regulatory regions ([2]; ChIP-seq): 8214 genes
genes with increased β-catenin DNA-binding in the regulatory regions ([2]; ChIP-seq): 1543 genes
genes with an increase in expression and β-catenin DNA-binding ([2]; overlap with 519 induced genes): 84 genes
genes with a decrease in both gene expression and SMAD1 DNA-binding ([2]; overlap with 827 suppressed genes): 649 genes
osteocytes in implants, histology (GFP+CD31+ aortic cells; implants with GFP+CD31+ aortic cells of treated group): lack of osteocytes
ectopic bone by Micro-CT (GFP+CD31+ aortic cells; implants with GFP+CD31+ aortic cells of treated group vs controls): smaller size of ectopic bone, less trabecular formation and less bone volume
inhibition of GSK3 isoforms GSK3α and GSK3β (GSK3α and GSK3β): specifically inhibits the activity of these GSK3 isoforms in an ATP competitive manner
microstructure of bone tissues and vasculature, immunostaining of CD31 and osterix [3]: no changes in the microstructure of bone tissues and vasculature
CD31+ aortic cells co-expressing VE-cadherin and osterix, FACS [4]: decreased number of cells that co-expressed VE-cadherin and osterix
CD31+ aortic cells expressing only VE-cadherin, FACS [4]: increased number of cells that only expressed VE-cadherin
aortic mineralization, von Kossa staining [4]: dramatic decrease in aortic mineralization
immunoblotting of aortic tissues [4]: decreased Cbfa1 and osterix, increased von Willebrand factor (vWF) and VE-cadherin and altered SMAD1 and β-catenin
total aortic calcium [4]: decrease in calcium deposition
